Test results reported in article PMC5218480 (PLoS ONE, 2017).

Test system: MV-4-11 cells
Assay: Gene expression microarray analysis (Affymetrix PrimeView) and GSEA
Assay type: cell-based, human
Design: RFU PODN (11730768_x_at) / Fold change /veh PODN (11730768_x_at) / RFU LINC00158 (11744669_a_at) / Fold change /veh LINC00158 (11744669_a_at) / RFU DUSP10 (11751237_a_at) / Fold change /veh DUSP10 (11751237_a_at) / RFU ID3 (11757404_x_at) / Fold change /veh ID3 (11757404_x_at) / RFU PLEKHG5 (11737974_s_at) / Fold change /veh PLEKHG5 (11737974_s_at) / RFU LRRC4B (11730491_at) / Fold change /veh LRRC4B (11730491_at) / RFU GIMAP4 (11747438_a_at) / Fold change /veh GIMAP4 (11747438_a_at) / RFU KRT8 (11758183_x_at) / Fold change /veh KRT8 (11758183_x_at) / RFU CNN1 (11734310_a_at) / Fold change /veh CNN1 (11734310_a_at) / RFU VPS37D (11726825_at) / Fold change /veh VPS37D (11726825_at) / RFU C10orf10 (11716522_x_at) / Fold change /veh C10orf10 (11716522_x_at) / RFU KIR2DL2 /// KIR2DL4 /// KIR2DL5A /// KIR2DL5B /// KIR2DS1 /// KIR2DS2 /// KIR2DS3 /// KIR2DS4 /// KIR3DL3 /// KIR3DL3 /// KIR3DS1 (11738374_at) / Fold change /veh KIR2DL2 /// KIR2DL4 /// KIR2DL5A /// KIR2DL5B /// KIR2DS1 /// KIR2DS2 /// KIR2DS3 /// KIR2DS4 /// KIR3DL3 /// KIR3DL3 /// KIR3DS1 (11738374_at) / RFU C1QL1 (11718748_at) / Fold change /veh C1QL1 (11718748_at) / RFU TMPRSS4 (11747572_a_at) / Fold change /veh TMPRSS4 (11747572_a_at) / RFU HAMP (11756126_x_at) / Fold change /veh HAMP (11756126_x_at) / RFU RNFT2 (11725882_a_at) / Fold change /veh RNFT2 (11725882_a_at) / RFU NR4A2 (11747474_a_at) / Fold change /veh NR4A2 (11747474_a_at) / RFU ABCC12 (11746883_a_at) / Fold change /veh ABCC12 (11746883_a_at) / RFU TMEM136 (11760407_x_at) / Fold change /veh TMEM136 (11760407_x_at) / RFU CLDN22 /// WWC2 (11732394_at) / Fold change /veh CLDN22 /// WWC2 (11732394_at) / RFU HLA-DPB1 (11760878_x_at) / Fold change /veh HLA-DPB1 (11760878_x_at) / RFU SPINT1 (11716480_a_at) / Fold change /veh SPINT1 (11716480_a_at) / RFU GAP43 (11754022_s_at) / Fold change /veh GAP43 (11754022_s_at) / RFU A4GNT (11735810_at) / Fold change /veh A4GNT (11735810_at) / RFU PRB3 (11715151_x_at) / Fold change /veh PRB3 (11715151_x_at) / RFU TUBB4B (11761932_at) / Fold change /veh TUBB4B (11761932_at) / RFU CAPN14 (11732068_a_at) / Fold change /veh CAPN14 (11732068_a_at) / RFU TMCC2 (11721928_a_at) / Fold change /veh TMCC2 (11721928_a_at) / RFU IRGQ (11745062_a_at) / Fold change /veh IRGQ (11745062_a_at) / RFU FAM174B (11720279_a_at) / Fold change /veh FAM174B (11720279_a_at) / RFU TMPRSS4 (11748680_a_at) / Fold change /veh TMPRSS4 (11748680_a_at) / RFU FAM212B (11763350_a_at) / Fold change /veh FAM212B (11763350_a_at) / RFU PLEKHG5 (11743358_a_at) / Fold change /veh PLEKHG5 (11743358_a_at) / RFU ZSCAN30 (11745921_a_at) / Fold change /veh ZSCAN30 (11745921_a_at) / RFU CMKLR1 (11741424_a_at) / Fold change /veh CMKLR1 (11741424_a_at) / RFU LOC101060620 /// MAPK8IP1 (11723275_at) / Fold change /veh LOC101060620 /// MAPK8IP1 (11723275_at) / RFU SPTSSB (11747773_x_at) / Fold change /veh SPTSSB (11747773_x_at) / RFU PRSS12 (11739890_at) / Fold change /veh PRSS12 (11739890_at) / RFU BIN1 (11741810_x_at) / Fold change /veh BIN1 (11741810_x_at) / RFU WNT11 (11732464_a_at) / Fold change /veh WNT11 (11732464_a_at) / RFU C10orf10 (11716521_a_at) / Fold change /veh C10orf10 (11716521_a_at) / RFU C5orf56 (11738089_at) / Fold change /veh C5orf56 (11738089_at) / RFU CYB561 (11721691_x_at) / Fold change /veh CYB561 (11721691_x_at) / RFU ANKRD19P (11752326_a_at) / Fold change /veh ANKRD19P (11752326_a_at) / RFU OR2T12 /// OR2T33 /// OR2T8 (11738714_s_at) / Fold change /veh OR2T12 /// OR2T33 /// OR2T8 (11738714_s_at) / RFU VCAN (11748164_a_at) / Fold change /veh VCAN (11748164_a_at) / RFU JSRP1 (11732532_at) / Fold change /veh JSRP1 (11732532_at) / RFU KRTAP10-11 (11738290_x_at) / Fold change /veh KRTAP10-11 (11738290_x_at) / RFU MYO3A (11730013_a_at) / Fold change /veh MYO3A (11730013_a_at) / RFU EBF3 (11725865_a_at) / Fold change /veh EBF3 (11725865_a_at) / RFU CAMK2N1 (11719241_x_at) / Fold change /veh CAMK2N1 (11719241_x_at) / RFU C5orf56 (11738088_a_at) / Fold change /veh C5orf56 (11738088_a_at) / RFU OLFML3 (11715873_a_at) / Fold change /veh OLFML3 (11715873_a_at) / RFU LOC100653217 /// NTM (11731650_a_at) / Fold change /veh LOC100653217 /// NTM (11731650_a_at) / RFU MAPK11 (11762145_a_at) / Fold change /veh MAPK11 (11762145_a_at) / RFU FIZ1 (11724087_x_at) / Fold change /veh FIZ1 (11724087_x_at) / RFU OASL (11726364_x_at) / Fold change /veh OASL (11726364_x_at) / RFU SOX15 (11748057_x_at) / Fold change /veh SOX15 (11748057_x_at) / RFU CD79A (11719716_a_at) / Fold change /veh CD79A (11719716_a_at) / RFU HIST1H1D (11736915_at) / Fold change /veh HIST1H1D (11736915_at) / RFU CASKIN2 (11723855_a_at) / Fold change /veh CASKIN2 (11723855_a_at) / RFU LOC730098 (11760151_x_at) / Fold change /veh LOC730098 (11760151_x_at) / RFU OR4N2 (11742367_at) / Fold change /veh OR4N2 (11742367_at) / RFU PRRT2 (11749266_a_at) / Fold change /veh PRRT2 (11749266_a_at) / RFU SNX32 (11753110_a_at) / Fold change /veh SNX32 (11753110_a_at) / RFU CDHR5 (11726645_a_at) / Fold change /veh CDHR5 (11726645_a_at) / RFU RCAN1 (11760418_a_at) / Fold change /veh RCAN1 (11760418_a_at) / RFU FAM167A (11723789_a_at) / Fold change /veh FAM167A (11723789_a_at) / RFU FAM26E (11764081_at) / Fold change /veh FAM26E (11764081_at) / RFU ISYNA1 (11749810_s_at) / Fold change /veh ISYNA1 (11749810_s_at) / RFU ACY1 (11761880_at) / Fold change /veh ACY1 (11761880_at) / RFU 11764098_at / Fold change /veh 11764098_at / RFU SAMD14 (11745864_x_at) / Fold change /veh SAMD14 (11745864_x_at) / RFU NPB (11741838_a_at) / Fold change /veh NPB (11741838_a_at) / RFU TMPRSS6 (11731388_a_at) / Fold change /veh TMPRSS6 (11731388_a_at) / RFU KRTAP10-2 (11738614_at) / Fold change /veh KRTAP10-2 (11738614_at) / RFU ARHGAP8 /// PRR5-ARHGAP8 (11727945_x_at) / Fold change /veh ARHGAP8 /// PRR5-ARHGAP8 (11727945_x_at) / RFU KRTAP5-7 /// NADSYN1 (11734609_at) / Fold change /veh KRTAP5-7 /// NADSYN1 (11734609_at) / RFU RASL12 (11751679_a_at) / Fold change /veh RASL12 (11751679_a_at) / RFU CDKN2B (11736163_a_at) / Fold change /veh CDKN2B (11736163_a_at) / RFU PRF1 (11729649_at) / Fold change /veh PRF1 (11729649_at) / RFU, ZNF638 /// ZNF638-IT1 / Fold change vs veh, ZNF638 /// ZNF638-IT1 / RFU, PANK3 / Fold change vs veh, PANK3 / RFU, SH3YL1 / Fold change vs veh, SH3YL1 / RFU, ZEB2 / Fold change vs veh, ZEB2 / RFU, NRIP1 / Fold change vs veh, NRIP1 / RFU, PTTG1IP / Fold change vs veh, PTTG1IP / RFU, CAPN2 / Fold change vs veh, CAPN2 / RFU, MED14 / Fold change vs veh, MED14 / RFU, SNORA58 / Fold change vs veh, SNORA58 / RFU, C1orf63 / Fold change vs veh, C1orf63 / RFU, LRRFIP1 / Fold change vs veh, LRRFIP1 / RFU, NDUFAF7 / Fold change vs veh, NDUFAF7 / RFU, SLC12A2 / Fold change vs veh, SLC12A2 / RFU, IBTK / Fold change vs veh, IBTK / RFU, ESF1 / Fold change vs veh, ESF1 / Fold change vs veh, TMEM50B / RFU, TAOK1 / Fold change vs veh, TAOK1 / RFU, ACBD3 / Fold change vs veh, ACBD3 / RFU, TMA16 / Fold change vs veh, TMA16 / RFU, RWDD3 / Fold change vs veh, RWDD3 / RFU, BCAT1 / Fold change vs veh, BCAT1 / RFU, EDEM3 / Fold change vs veh, EDEM3 / RFU, TMEM33 / Fold change vs veh, TMEM33 / RFU, WDR75 / Fold change vs veh, WDR75 / RFU, AHCTF1 / Fold change vs veh, AHCTF1 / RFU, TFRC / Fold change vs veh, TFRC / RFU, ZDHHC17 / Fold change vs veh, ZDHHC17 / RFU, NOM1 / Fold change vs veh, NOM1 / RFU, ARL8B / Fold change vs veh, ARL8B / RFU, ZBTB11 / Fold change vs veh, ZBTB11 / RFU, TAMM41 / Fold change vs veh, TAMM41 / RFU, KIAA1704 /// LOC100996395 / Fold change vs veh, KIAA1704 /// LOC100996395 / RFU, ING1 / Fold change vs veh, ING1 / RFU, TRMT61B / Fold change vs veh, TRMT61B / RFU, FUBP3 / Fold change vs veh, FUBP3 / RFU, TP53 / Fold change vs veh, TP53 / RFU, TNKS2 / Fold change vs veh, TNKS2 / RFU, ZFP14 / Fold change vs veh, ZFP14 / RFU, ACTR2 / Fold change vs veh, ACTR2 / RFU, PPP3R1 / Fold change vs veh, PPP3R1 / RFU, PIK3R1 / Fold change vs veh, PIK3R1 / RFU, HNRNPA1 / Fold change vs veh, HNRNPA1 / RFU, RNF170 / Fold change vs veh, RNF170 / RFU, ZNF28 / Fold change vs veh, ZNF28 / RFU, RNGTT / Fold change vs veh, RNGTT / RFU, OGT / Fold change vs veh, OGT / RFU, BRD1 / Fold change vs veh, BRD1 / RFU, MARS / Fold change vs veh, MARS / RFU, ZNF655 / Fold change vs veh, ZNF655 / RFU, FAHD1 / Fold change vs veh, FAHD1 / RFU, BDP1 / Fold change vs veh, BDP1 / RFU, LRRCC1 / Fold change vs veh, LRRCC1 / RFU, ARID1A / Fold change vs veh, ARID1A / RFU, ZNF146 / Fold change vs veh, ZNF146 / RFU, ZNF330 / Fold change vs veh, ZNF330 / RFU, GPN3 / Fold change vs veh, GPN3 / RFU, C9orf123 / Fold change vs veh, C9orf123 / RFU, N4BP2L2 / Fold change vs veh, N4BP2L2 / RFU, ARFIP1 / Fold change vs veh, ARFIP1 / RFU, FAM179B / Fold change vs veh, FAM179B / RFU, BCL10 / Fold change vs veh, BCL10 / RFU, UHRF1BP1L / Fold change vs veh, UHRF1BP1L / RFU, BET1 / Fold change vs veh, BET1 / RFU, CNOT2 / Fold change vs veh, CNOT2 / RFU, ZNF268 / Fold change vs veh, ZNF268 / Fold change vs veh, ZNF507 / RFU, DGCR2 / Fold change vs veh, DGCR2 / RFU, WDSUB1 / Fold change vs veh, WDSUB1 / Fold change vs veh, HSP90B1 /// MIR3652 / RFU, ADSS / Fold change vs veh, ADSS / RFU, GK / Fold change vs veh, GK / RFU, ZNF148 / Fold change vs veh, ZNF148 / RFU, TAF9 / Fold change vs veh, TAF9 / RFU, SLC1A5 / Fold change vs veh, SLC1A5 / RFU, SLMO2 / Fold change vs veh, SLMO2 / RFU, ABCC4 / Fold change vs veh, ABCC4 / RFU, LOC101060439 /// RAP1B / Fold change vs veh, LOC101060439 /// RAP1B / RFU, RFX7 / Fold change vs veh, RFX7 / RFU, GTPBP10 / Fold change vs veh, GTPBP10 / RFU, CNEP1R1 / Fold change vs veh, CNEP1R1 / RFU, BIVM-ERCC5 /// ERCC5 / Fold change vs veh, BIVM-ERCC5 /// ERCC5 / RFU, ILF3 / Fold change vs veh, ILF3 / RFU 11762660_at / Fold change /veh 11762660_at / RFU VCAN (11757783_s_at) / Fold change /veh VCAN (11757783_s_at) / RFU DDX43 (11728927_at) / Fold change /veh DDX43 (11728927_at) / RFU KRT8 (11758188_x_at) / Fold change /veh KRT8 (11758188_x_at) / RFU NKD1 (11759106_at) / Fold change /veh NKD1 (11759106_at) / RFU SRD5A1 (11742802_a_at) / Fold change /veh SRD5A1 (11742802_a_at) / RFU TPSAB1 /// TPSB2 (11721975_s_at) / Fold change /veh TPSAB1 /// TPSB2 (11721975_s_at) / RFU GSTM3 (11746129_a_at) / Fold change /veh GSTM3 (11746129_a_at) / RFU IL23R (11737362_x_at) / Fold change /veh IL23R (11737362_x_at) / RFU TMEM51 (11727254_a_at) / Fold change /veh TMEM51 (11727254_a_at) / RFU PIWIL2 (11732686_x_at) / Fold change /veh PIWIL2 (11732686_x_at) / RFU ORM1 (11744905_x_at) / Fold change /veh ORM1 (11744905_x_at) / RFU CCDC152 (11743942_at) / Fold change /veh CCDC152 (11743942_at) / RFU ECM1 (11717891_a_at) / Fold change /veh ECM1 (11717891_a_at) / RFU IL23R (11748794_a_at) / Fold change /veh IL23R (11748794_a_at) / RFU TNFAIP8L3 (11732012_x_at) / Fold change /veh TNFAIP8L3 (11732012_x_at) / RFU MBOAT4 (11741988_at) / Fold change /veh MBOAT4 (11741988_at) / RFU 11764193_at / Fold change /veh 11764193_at / RFU TMEM53 (11763286_at) / Fold change /veh TMEM53 (11763286_at) / RFU MAGEB2 (11727129_at) / Fold change /veh MAGEB2 (11727129_at) / RFU TMEM200A (11744735_a_at) / Fold change /veh TMEM200A (11744735_a_at) / RFU CCDC152 (11751479_a_at) / Fold change /veh CCDC152 (11751479_a_at) / RFU FAM211A (11726209_a_at) / Fold change /veh FAM211A (11726209_a_at) / RFU RGS16 (11746705_a_at) / Fold change /veh RGS16 (11746705_a_at) / RFU VCAN (11755009_s_at) / Fold change /veh VCAN (11755009_s_at) / RFU RHOB (11743442_s_at) / Fold change /veh RHOB (11743442_s_at) / RFU RGS16 (11720943_a_at) / Fold change /veh RGS16 (11720943_a_at) / RFU RGS16 (11720944_at) / Fold change /veh RGS16 (11720944_at) / RFU, VPS4B / Fold change vs veh, VPS4B / RFU, CREB1 / Fold change vs veh, CREB1 / RFU, DNAJC13 / Fold change vs veh, DNAJC13 / RFU, GNAQ / Fold change vs veh, GNAQ / RFU, CDK5R1 / Fold change vs veh, CDK5R1 / RFU, ZRANB3 / Fold change vs veh, ZRANB3 / RFU, CUL4A / Fold change vs veh, CUL4A / RFU, CCNY / Fold change vs veh, CCNY / RFU, UFL1 / Fold change vs veh, UFL1 / RFU, COG3 / Fold change vs veh, COG3 / RFU, DIAPH2 / Fold change vs veh, DIAPH2 / RFU, SKA2 / Fold change vs veh, SKA2 / RFU, AFF3 / Fold change vs veh, AFF3 / RFU, LMF1 / Fold change vs veh, LMF1 / RFU, IPO11 / Fold change vs veh, IPO11 / RFU, DFFB / Fold change vs veh, DFFB / RFU, FOXP1 / Fold change vs veh, FOXP1 / RFU, CARD8 / Fold change vs veh, CARD8 / RFU, STRN3 / Fold change vs veh, STRN3 / RFU, ADK / Fold change vs veh, ADK / RFU, RASSF2 / Fold change vs veh, RASSF2 / RFU, WIPF1 / Fold change vs veh, WIPF1 / RFU, LARP1B / Fold change vs veh, LARP1B / RFU, RASA1 / Fold change vs veh, RASA1 / RFU, RB1 / Fold change vs veh, RB1 / RFU, PPFIA1 / Fold change vs veh, PPFIA1 / RFU, MAT2A / Fold change vs veh, MAT2A / RFU, CCT5 / Fold change vs veh, CCT5 / RFU, WDR92 / Fold change vs veh, WDR92 / RFU, CUX1 / Fold change vs veh, CUX1 / RFU, TTC7A / Fold change vs veh, TTC7A / RFU, TMEM135 / Fold change vs veh, TMEM135 / RFU, DEPTOR / Fold change vs veh, DEPTOR / RFU, CPM / Fold change vs veh, CPM / RFU, DNAJB6 / Fold change vs veh, DNAJB6 / RFU, CACNA2D3 / Fold change vs veh, CACNA2D3 / RFU, DTX4 / Fold change vs veh, DTX4 / RFU, TFCP2 / Fold change vs veh, TFCP2 / RFU, GMCL1 /// GMCL1P1 / Fold change vs veh, GMCL1 /// GMCL1P1 / RFU, AEBP2 / Fold change vs veh, AEBP2 / RFU, SNHG1 /// SNORD22 /// SNORD25 /// SNORD26 /// SNORD27 /// SNORD28 /// SNORD29 /// SNORD31 / Fold change vs veh, SNHG1 /// SNORD22 /// SNORD25 /// SNORD26 /// SNORD27 /// SNORD28 /// SNORD29 /// SNORD31 / Fold change (Aza/veh), C12orf56 (ProbeSet 11735607_a_at) / Fold change (ACY-1035/veh), C12orf56 (ProbeSet 11735607_a_at) / Fold change (Aza/veh), FGFR1OP (ProbeSet 11751329_s_at) / Fold change (ACY-1035/veh), FGFR1OP (ProbeSet 11751329_s_at) / Fold change (Aza/veh), VPS36 (ProbeSet 11739960_a_at) / Fold change (ACY-1035/veh), VPS36 (ProbeSet 11739960_a_at) / RFU SYPL1 (11715823_x_at) / Fold change /veh SYPL1 (11715823_x_at) / RFU IGFBP7 (11715501_s_at) / Fold change /veh IGFBP7 (11715501_s_at) / RFU REEP3 (11722064_at) / Fold change /veh REEP3 (11722064_at) / RFU IGLL1 (11728026_x_at) / Fold change /veh IGLL1 (11728026_x_at): dose or concentration left out as unconfirmed
Conditions: ProbeSet 11743567_s_at; LIST B

For `Nc1ccc(-c2cccs2)cc1NC(=O)c1ccc2c(c1)cc(C1CC1)n2CCN1CCOCC1` [ACY-1035], which “Fold change vs veh, ACBD3” value is on record?
Its value is 0.99.
